Experimental findings from ChEMBL document CHEMBL1131678, “Arachidonic acid amide inhibitors of gap junction cell-cell communication” (1999) are described below.

The species entered for test [1] is Rattus norvegicus. Description: Tested for inhibition of rat glial cell gap junction at the concentration of 20 uM. The class given is functional.
For test [2], the species on record is Rattus norvegicus. Kind of test: Inhibition of rat glial cell gap junction at the concentration of 50 uM. Format: functional.

For `CCCCCCCC/C=C\CCCCCCCC(=O)N1CCCC1`, the inhibition (usually how much of the control response was suppressed) at 20 µM in test [1] was determined as 0%. Also, at 50 µM the inhibition in test [2] was 100%.
In turn, `CCCCC/C=C\C/C=C\C/C=C\C/C=C\CCCC(=O)N(C)OC` displayed an inhibition at 50 µM in test [2] of 100%.
In test [1], `CCCCCCCC/C=C\CCCCCCCC(=O)N(CCO)CCO` showed an inhibition at 20 µM of 0%. The compound further registered an inhibition at 50 µM in test [2] of 8%.
In test [2], `CCCCCCCC/C=C\CCCCCCCC(=O)Nc1ccccc1` [OLEIC ACID ANILIDE] gave an inhibition at 50 µM of 0%.
In test [1], `CCCCCCCC/C=C\CCCCCCCC(=O)O` [OLEIC ACID] yielded an inhibition at 20 µM of 0%. In test [2], the inhibition at 50 µM was determined as 0%.
Consider `CCCCCCCC/C=C\CCCCCCCC(=O)NO`, for which the inhibition at 50 µM in test [2] stood at 100%.
In the case of `CCCCC/C=C\C/C=C\C/C=C\C/C=C\CCCC(=O)NCCC`, the inhibition at 50 µM in test [2] was found to be 100%.
`CCCCCCCC/C=C\CCCCCCCC(=O)N(C)C` yielded an inhibition at 20 µM in test [1] of 70%. This compound showed an inhibition at 50 µM in test [2] of 100%.
In the case of `CCCCC/C=C\C/C=C\C/C=C\C/C=C\CCCC(=O)N(CCO)CCO`, the inhibition at 20 µM in test [1] turned out to be 0%. In test [2], this compound had an inhibition at 50 µM of 0%.
Consider `CCCCCCCC/C=C\CCCCCCCC(=O)NCCCC`, for which, in test [2], the inhibition at 50 µM is 100%.
In the case of `CCCCCCCC/C=C\CCCCCCCC(=O)NCCO` [OLEOYLETHANOLAMIDE], in test [1], 20 µM produced 0% inhibition. Moreover, at 50 µM the inhibition in test [2] was 100%.
Take `CCCCC/C=C\C/C=C\C/C=C\C/C=C\CCCC(=O)NCCCC`: at 50 µM the inhibition in test [2] was 10%.
Compound `CCCCC/C=C\C/C=C\C/C=C\C/C=C\CCCC(=O)NC(C)C` gave an inhibition at 50 µM in test [2] of 100%.
Turning to `CCCCC/C=C\C/C=C\C/C=C\C/C=C\CCCC(=O)NCC`, in test [2], at 50 µM the inhibition was 100%.
In test [1], `CCCCCCCC/C=C\CCCCCCCC(=O)NCCC` yielded an inhibition at 20 µM of 50%. This compound showed an inhibition at 50 µM in test [2] of 90%.
Take `CCCCC/C=C\C/C=C\C/C=C\C/C=C\CCCC(=O)N(CCC)CCC`: in test [2], the inhibition at 50 µM was found to be 10%.
With `CCCCCCCC/C=C\CCCCCCCC(=O)N(C)C(C)C`, in test [2], the inhibition at 50 µM was determined as 100%.
Compound `CCCCCCCC/C=C\CCCCCCCC(=O)NC(C)C` showed an inhibition at 50 µM in test [2] of 100%.
In test [2], `C=CCNC(=O)CCC/C=C\C/C=C\C/C=C\C/C=C\CCCCC` yielded an inhibition at 50 µM of 90%.
`CCCCCCCC/C=C\CCCCCCCC(=O)NCCCO` returned an inhibition at 50 µM in test [2] of 100%.
In test [2], `CCCCCCCC/C=C\CCCCCCCC(=O)NCCCc1ccccc1` yielded an inhibition at 50 µM of 0%.
`CCCCC/C=C\C/C=C\C/C=C\C/C=C\CCCC(=O)O` [ARACHIDONIC ACID]: the inhibition at 20 µM in test [1] is 0%. This compound had an inhibition at 50 µM in test [2] of 0%.
`C=CCNC(=O)CCCCCCC/C=C\CCCCCCCC`: in test [2], the inhibition at 50 µM was determined as 100%.
In test [1], `CCCCC/C=C\C/C=C\C/C=C\C/C=C\CCCC(N)=O` [ARACHIDONAMIDE] showed an inhibition at 20 µM of 90%. Also, the inhibition at 50 µM in test [2] was 100%.
`CCCCCCCC/C=C\CCCCCCCC(=O)N(CC)CC` displayed an inhibition at 20 µM in test [1] of 15%. The compound further came in with an inhibition at 50 µM in test [2] of 100%.
In the case of `CCCCC/C=C\C/C=C\C/C=C\C/C=C\CCCC(=O)N(CC)CC`, in test [2], the inhibition at 50 µM was found to be 100%.
For `CCCCC/C=C\C/C=C\C/C=C\C/C=C\CCCC(=O)N(C)C(C)C`, 50 µM produced 100% inhibition in test [2].
The same measure, in the same setting: the result for `CCCCC/C=C\C/C=C\C/C=C\C/C=C\CCCC(=O)NC` reads 100%; that for `CCCCC/C=C\C/C=C\C/C=C\C/C=C\CCCC(=O)NC1CC1`, 100%; that for `CCCCC/C=C\C/C=C\C/C=C\C/C=C\CCCC(=O)N1CCCC1`, 100%.
Still for that read-out and setting: the figure for `CCCCC/C=C\C/C=C\C/C=C\C/C=C\CCCC(=O)N(C)C` is 100%.
Consider `CCCCCCCC/C=C\CCCCCCCC(N)=O` [OLEAMIDE], for which the inhibition at 20 µM in test [1] turned out to be 100%. Also, the inhibition at 50 µM in test [2] is 100%.
`CCCCCCCC/C=C\CCCCCCCC(=O)N(C)OC` had an inhibition at 20 µM in test [1] of 100%. The inhibition at 50 µM in test [2] stood at 100%.
`CCCCC/C=C\C/C=C\C/C=C\C/C=C\CCCC(=O)NCCO` [ANANDAMIDE] yielded an inhibition at 20 µM in test [1] of 35%. For the same compound, the inhibition at 50 µM in test [2] amounted to 100%.
Compound `CCCCCCCC/C=C\CCCCCCCC(=O)NC1CC1` gave an inhibition at 50 µM in test [2] of 100%.
`CCCCCCCC/C=C\CCCCCCCC(=O)NC` came in with an inhibition at 20 µM in test [1] of 70%. In test [2], this compound gave an inhibition at 50 µM of 100%.
The compound `CCCCCCCC/C=C\CCCCCCCC(=O)NCC` registered an inhibition at 20 µM in test [1] of 50%. In addition, in test [2], 50 µM produced 100% inhibition.
